Test: Human HepG2 cell viability assay in 384 well format
Assay type: toxicity, cell-based
Set-up: dose 125 nL, time 70.5 hour; concentration not given beside the values
Settings: HepG2 cells, read-out: Inhibition

SMILES	cytotoxicity at 70.5 h [%]
COc1cc2nc(C)sc2cc1NC(=O)C(C)NC(N)=O (configuration not stated)	1.54
COc1cc2nc(C)sc2cc1NC(=O)CN(C)C(C)C	4.08
Cn1ccc2c(C(=O)NCC3(C(N)=O)CCOCC3)cccc21	1.25
CNC(=O)NC(=O)CN(C)C(c1cccnc1)c1ccc(F)cc1F (configuration not stated)	-1.87
CCCC(=O)NC(Cc1ccc(C)cc1)c1ccccn1 (configuration not stated)	2.81
Cc1ccc(CC(NC(=O)Cn2cnnn2)c2ccccn2)cc1 (configuration not stated)	-1.31
CSCC(=O)NC(Cc1ccc(C)cc1)c1ccccn1 (configuration not stated)	0.833
Cc1cc(C)n(C2CCCN(C(=O)CN(C)c3cnccn3)C2)n1 (configuration not stated)	-0.822
O=C1NCCCC1NC(=O)C1(c2cccc(Cl)c2)CCC1 (configuration not stated)	-0.27
CCCNC(=O)CCC(=O)Nc1cc2sc(C)nc2cc1OC	0.815
O=C(OCCF)c1cccc(C(=O)N2CCCC2)n1	26.7
Cc1ccc(CC(NC(=O)CN(C)C2CC2)c2ccccn2)cc1 (configuration not stated)	-1.04
CCCn1nc(C(=O)N(C)Cc2nnc3n2CCC3)ccc1=O	-6.95
Cc1cnn(CCC(=O)NCc2ccc(N(C)C)c(C)c2)c1	-5.29
COc1cccc(-c2cc(NCc3cscn3)n(C)n2)c1	-7.72
CCCN1CCC(NCc2cccc(CN3CCOC(C)C3)c2)CC1 (configuration not stated)	27.7
N#CCCN(CCC#N)C(=O)c1cccc(N2CCNC2=O)c1	-7.77
N#Cc1cccc(S(=O)(=O)NC2CCN(CC(F)(F)F)C2)c1 (configuration not stated)	-15.4
Cc1cnn(C2CCCN(C(=O)c3cc(-c4ccccc4C)n[nH]3)C2)c1 (configuration not stated)	9.61
Cn1ccnc1CN1CCN(Cc2cc(-c3ccccc3)no2)CC1	-16.7
Cn1cnnc1C1CCN(c2nc3ccccc3o2)CC1	-5.83
COc1ccc(C2CCN(S(=O)(=O)CCCC#N)CC2)cc1	-9.02
CCCS(=O)(=O)N1CCC(c2ccc(OC)cc2)CC1	-5.25
CC(=O)c1sc(C(NC(=O)c2ccccc2)C2CC2)nc1C (configuration not stated)	8.83

SMILES	cytotoxicity at 70.5 h [%]
Cc1ccccc1C(NC(=O)CCCS(C)(=O)=O)C(C)(C)C (configuration not stated)	14.3
Cc1nc(C)c(C(=O)N2CCCc3c(F)cccc32)o1	-5.01
Cc1nc(C)c(C(=O)N2CCc3c(C)cccc32)o1	-5.23
Cc1nc(C)c(C(=O)N2CCc3c(Cl)cccc32)o1	1.38
COC(=O)c1ccc(Cn2cccc(C(F)(F)F)c2=O)c(OC)c1	21.6
CC(C)N(CC(=O)Nc1cccc(C(=O)N(C)C)c1)C1CC1	7.53
COc1ccc(CCN2CCCC(n3cncn3)C2)cc1 (configuration not stated)	-10.1
CC1CN(C)CCN1C(=O)c1cccn1Cc1ccncc1 (configuration not stated)	-0.0265
CN(C)c1ncccc1NC(=O)COC1CCCC1	-5.74
CC1CN(Cc2cccc(CNC3CCCC3)c2)CCO1 (configuration not stated)	12.8
CN(C)c1ncccc1NC(=O)COCC1CC1	-9.25
FC(F)(F)Oc1ccc(CN2CCCC(n3cncn3)C2)cc1 (configuration not stated)	-10.6
Cc1nc(CN(C)S(=O)(=O)c2ccccc2C(F)(F)F)no1	-5.33
COc1cccnc1NC(=O)COC1CCCC1	24.8
Cc1noc(C(C)N2CCN(Cc3noc(C4CC4)n3)CC2)n1 (configuration not stated)	-8.62
Cc1ccc(C(NC(=O)CCNC(=O)c2ccoc2)C(F)(F)F)cc1 (configuration not stated)	-0.123
O=C(c1csnn1)N1CCc2ccccc21	2.68
Cc1ncc2c(n1)CCN(Cc1nc(Cc3ccccc3)no1)C2	1.16
Cc1nn(-c2ccccc2)c(C)c1CC(=O)NC1CC(=O)N(C)C1 (configuration not stated)	-7.27
COc1ccc(C)cc1CN1CCN(Cc2nccn2C)CC1	1.89
FC(F)(F)Sc1ccccc1NCc1nc(C2CC2)no1	16.7
COc1ccc(C)cc1CN1CCN(Cc2nccn2C)C(C)C1 (configuration not stated)	7.41
CCC(CC)(CNC(=O)OC(C)(C)C)NC(=O)C1CCOCC1	-5.37

From ChEMBL document CHEMBL3507680, “University of Dundee, Gates Library screen for HepG2 cell viability”
